Common to all, as to assay type: cell-based
Assay [1] deals with canonical Wnt signaling. In words: ST-Luc (SuperTOPFlash) Luciferase assay in HEK293 cells, 30% Wnt3a-CM. Particulars: Homo sapiens, HEK293; 10 μM compound, 30% Wnt3a-CM, 24 h; relative to DMSO control. On the procedure: Inhibition of Wnt signaling by compound No. 1 was quantified in vitro using a Luciferase assay in HEK293 cells transiently transfected with SuperTOPFlash plasmid (ST-Luc) (Veeman M T et al., Curr. Biol. 13: 680-685, 2003) at concentrations from 0.1-10 μM. HEK293 cells were purchased from ATCC (American Type Culture Collection) and maintained according to suppliers recommendations.
Transfection was performed using 80000 HEK293 cells seeded in 48-well plates coated with poly-L lysine. After 24 hours, 0.25 μg total plasmid DNA (0.23 μg SuperTOPFlash+0.02 μg pRL-TK (Renilla)—Promega) and 0.75 μl FuGENE6 (Roche) was combined in a total volume in 25 μl Opti-MEM® (Invitrogen) as described by the manufacturer (Roche). The transfection mixture was added to the plated cells and media were changed after 24 hours.
The Luciferase assay was performed by incubating transfected cells for 24 hours with various concentrations of compound No. 1 in 30% Wnt3a-CM (Wnt3a containing conditioned medium from L Wnt3a cells was harvested as described by ATCC). All treated reporter cells were finally lysed and the firefly luciferase and Renilla activities were measured on a 20/20n Luminometer (Turner BioSystems) as described in the Dual-Glo™ Luciferase Assay System Technical Manual (Promega).
HEK293 cells were transfected, grown and assayed as described in Example 22. 24 hours after seeding, the cells were incubated for an additional 24 hours with 10 μM concentrations of compounds in 30% Wnt3a-CM.
The percent activities shown in Table 3 are calculated relative to DMSO as a control. Some values shown are averages of multiple measurements. Compound XAV939 (Novartis; Huang et al., Nature (2009), 461, pp. 614-20) which is used as a positive control, has an activity of 7%.

The subject of assay [2] is SW480 colon carcinoma cells. The assay is described as follows: MTS cell proliferation assay, Table 5. Particulars: Homo sapiens; SW480, 10 μM, 72 h; relative to DMSO control; read-out: Cell proliferation (%) for test compounds. How it is done: For the experiment giving the results shown in Table 5, cells (3000 per well) were seeded on 96 well plates (eight replicates per treatment). After 24 hours, and daily thereafter, cell culture medium (including 10% FBS) was mixed with 10 μM compounds or with 0.1% DMSO vehicle and then added to the wells. Sixteen wells of seeded control cells, defining incubation time zero (t0=24 hour after cell seeding), were incubated with 20 μl substrate in 100 μl phenol free D-MEM (Invitrogen) for 2 hours, as described in the CellTiter 96® AQueous Non-Radioactive Cell Proliferation Assay protocol (Promega). The A490 was recorded. The treatment samples were likewise measured after 72 hours.
The quantity of reduced MTS product (as measured by the absorbance at 490 nm) is directly proportional to the number of living cells in the culture and thus allows a direct comparison of cell proliferation in each case. DMSO was used as a control. The following formula was used to determine single well relative A490 sample values: ((Sample A490−Average A490t0)*100)/(Average A490t720.1% DMSO control−Average A490t0)
The proliferation of SW480 cells (in percent) is the A492 value relative to that of the DMSO control.
(In general: Formazan colour is commonly taken as a measure of viable cells.)

Assay [3] has as its system canonical Wnt signaling. In words: IC50 in STF/REN HEK293 cells, 50% Wnt3a-CM. Particulars: Homo sapiens; STF/REN HEK293, 50% Wnt3a-CM, 24 h. How it is done: IC50 values were calculated using STF/REN HEK293 cells prepared essentially according to Example 22. Briefly, HEK293 cells (80,000 cells per well) were seeded in 48-well plates coated with poly-L lysine. 24 hours after seeding, the cells were incubated for an additional 24 hours with various compound concentrations in 50% Wnt3a-CM. After compound exposure, the cells were lysed and the firefly luciferase and Renilla activities were measured on a 20/20n Luminometer (Turner BioSystems) as described in the Dual-Glo™ Luciferase Assay System Technical Manual (Promega).
XLfit (idbs) was used to determine the IC50 and GI50 values in inhibition experiments. The data were fit to the following formulae:
IC50: Langmuir Binding Isotherm: fit=((A+(B*x))+(((C−B)*(1−exp((−1*D)*x)))/D)) res=(y−fit)

Each structure is given as a SMILES string. pIC50: −log10 of the molar value.

The term pIC50 denotes −log10 of the IC50, conventionally taken in molar units. Read a high pIC50 as a small IC50.

As to `Cc1ccc(-c2nnc(CSc3nnc(-c4cnc(N)nc4)n3-c3ccccc3Cl)o2)cc1` [compound 132, 5-(5-((5-p-tolyl-1,3,4-oxadiazol-2-yl)methylthio)-4-(2-chlorophenyl)-4H-1,2,4-triazol-3-yl)pyrimidin-2-amine], in the assay with canonical Wnt signaling [1], the activity at 10 µM was determined as 32%.
Turning to `Cc1ccc(-c2nnc(CSc3nnc(-c4ccc(Cl)cc4)n3-c3ccccc3Cl)o2)cc1` [compound 111, 3-((5-p-tolyl-1,3,4-oxadiazol-2-yl)methylthio)-4-(2-chlorophenyl)-5-(4-chlorophenyl)-4H-1,2,4-triazole], the activity at 10 µM was 0.7% with canonical Wnt signaling [1] and 44% in assay [2].
In the case of `Cc1ccc(-c2nnc(S[C@H](C)c3nnc(-c4ccncc4)n3-c3ccccc3Cl)o2)cc1` [100b], the activity at 10 µM in the assay with canonical Wnt signaling [1] worked out at 5%; in assay [2] it was 66%.
In the case of `Cc1ccccc1-n1c(SCc2nc(-c3cccc(C(F)(F)F)c3)no2)ccc1-c1ccncc1` [Compound 57], in the assay with canonical Wnt signaling [1], the activity at 10 µM was determined as 51.8%.
The compound `COc1ccc(-n2c(SCc3nc(-c4cccs4)no3)nnc2-c2ccncc2)cc1` [Compound 13] displayed an activity at 10 µM in the assay on canonical Wnt signaling [1] of 34.5%. In the assay with canonical Wnt signaling [3], this compound showed a pIC50 of 5.15.
The compound `COc1ccc(-n2c(SCc3cn4ccccc4n3)nnc2-c2ccncc2)cc1` [Compound 27] yielded an activity at 10 µM in the assay with canonical Wnt signaling [1] of 80.3%.
For the compound `Cc1ccccc1-c1nnc(CSc2nnc(-c3ccncc3)n2-c2ccccc2Cl)o1` [compound 71], the activity at 10 µM in the assay on canonical Wnt signaling [1] was 31%.
On the same count and under the same terms, then `Cc1ccc(-n2c(SCc3nc(C(C)(C)C)no3)nnc2-c2ccncc2)cc1` [Compound 81], with 89%; and `Cc1ccc(NC(=O)CSc2nnc(-c3ccncc3)n2-c2ccc(C)cc2)cc1` [Compound 92], with 84%.
`Cc1ccccc1-n1c(SCc2nc(-c3cccc(O)c3)no2)nnc1-c1ccncc1` [Compound 47]: in the assay on canonical Wnt signaling [1], the activity at 10 µM amounted to 8.7%. In addition, the pIC50 in the assay with canonical Wnt signaling [3] was 6.02.
Regarding `COc1cc(OC)cc(-c2nnc(SCc3nnc(-c4ccc(C)cc4)o3)n2-c2ccccc2Cl)c1` [Compound 107], the activity at 10 µM with canonical Wnt signaling [1] worked out at 4.5%; in assay [2], 47%.
`Cc1ccc(-n2c(SCC(=O)NC3CCCC3)nnc2-c2ccncc2)cc1` [Compound 93] returned an activity at 10 µM in the assay on canonical Wnt signaling [1] of 91%.
Same read-out and setting: then `COc1ccc(-n2c(SCCc3nc(-c4ccc(C)cc4)no3)nnc2-c2ccncc2)cc1` [Compound 2], with 31.8%.
`CCOc1ccc(-n2c(SCc3nc(-c4cccc(Cl)c4)no3)nnc2-c2ccncc2)cc1` [Compound 25] showed an activity at 10 µM in the assay on canonical Wnt signaling [1] of 59%. The compound further showed a pIC50 in the assay with canonical Wnt signaling [3] of 5.00.
In turn, `Cc1ccccc1-n1c(SCC(=O)Nc2ncccn2)nnc1-c1ccncc1` [Compound 82] returned an activity at 10 µM in the assay on canonical Wnt signaling [1] of 83%.
On the same count and under the same terms, then `COc1ccc(-n2c(O)nnc2-c2ccncc2)cc1` [Compound 16], with 71.8%; and `N#Cc1ccc(-c2nnc(CSc3nnc(-c4ccncc4)n3-c3ccccc3Cl)o2)cc1` [Compound 69], with 26%.
In the case of `Cc1ccc(-c2noc(CSc3nnc(-c4cccnc4)n3-c3ccccc3C)n2)cc1` [Compound 77], the activity at 10 µM in the assay on canonical Wnt signaling [1] was 51%.
As for `Cc1cc2nc(CSc3nnc(-c4ccncc4)n3-c3ccccc3Cl)cc(=O)n2cc1C` [compound 103], the activity at 10 µM in the assay on canonical Wnt signaling [1] came out at 20%; in assay [2] it was 67%.
In the assay with canonical Wnt signaling [1], `CCOc1ccc(-n2c(SCc3nnc(C)o3)nnc2-c2ccncc2)cc1` [Compound 30] displayed an activity at 10 µM of 78%.
Same read-out and setting: then `Cc1ccc(-c2noc(CSc3nnc(-c4cccc(O)c4)n3-c3ccccc3C)n2)cc1` [Compound 45], with 78.1%.
`Fc1ccc(-n2c(SCc3nc(-c4cccc(Cl)c4)no3)nnc2-c2ccncc2)cc1` [Compound 21] displayed an activity at 10 µM in the assay on canonical Wnt signaling [1] of 90.1%. This compound gave a pIC50 with canonical Wnt signaling [3] of 5.00.
Turning to `Sc1nnc(-c2ccncc2)n1-c1ccc(Cl)cc1` [Compound 17], the activity at 10 µM with canonical Wnt signaling [1] stood at 76.8%.
Still for that read-out and setting: then `Cc1ccccc1-n1c(SCC(=O)Nc2ccc3c(c2)CCC3)nnc1-c1ccncc1` [Compound 89], with 94%.
As to `CCOc1ccc(-c2nnc(SCc3nnc(-c4ccc(C)cc4)o3)n2-c2ccccc2Cl)cc1` [compound 109, 3-((5-p-tolyl-1,3,4-oxadiazol-2-yl)methylthio)-4-(2-chlorophenyl)-5-(4-ethoxyphenyl)-4H-1,2,4-triazole], the activity at 10 µM was found to be 0.6% in the assay with canonical Wnt signaling [1] and 33% in assay [2].
In the assay with canonical Wnt signaling [1], `Cc1ccc(-c2noc(CSc3nnc(-c4ccncc4)n3-c3ccc(Cl)cc3)n2)cc1` [Compound 3] registered an activity at 10 µM of 32.5%.
On the same count and under the same terms, then `O=C(CSc1nnc(-c2ccncc2)n1-c1ccccc1)Nc1ccccn1` [Compound 97], with 80%; and `Cc1ccc(-c2nnc(CSc3nnc(-c4ccncc4)n3-c3ccccc3Cl)o2)cc1Br` [compound 73], with 29%.
For the compound `CC(Sc1nnc(-c2ccccc2)n1-c1ccc(F)cc1F)c1nc(-c2ccncc2)no1` (stereo not drawn) [Compound 80], the activity at 10 µM in the assay with canonical Wnt signaling [1] came out at 32%.
`COc1ccc(-n2c(CCN(C)C)nnc2-c2ccncc2)cc1` [Compound 6] gave an activity at 10 µM in the assay on canonical Wnt signaling [1] of 55.7%.
`Cc1ccccc1-n1c(SCc2nc(-c3ccccc3Cl)no2)nnc1-c1ccncc1` [Compound 56]: the activity at 10 µM with canonical Wnt signaling [1] was found to be 55.1%.
Still for that read-out and setting: then `Cc1ccc(-c2nnc(Sc3nnc(-c4ccncc4)n3-c3ccccc3Cl)s2)cc1` [Compound 63], with 99%.
Still for that read-out and setting: then `Cc1ccc2nc(CSc3nnc(-c4ccncc4)n3-c3ccccc3C)cc(=O)n2c1` [Compound 85], with 43%.
Regarding `Cc1ccc(-c2noc(CS(=O)(=O)c3nnc(-c4ccncc4)n3-c3ccccc3Cl)n2)cc1` [compound 66], the activity at 10 µM in the assay on canonical Wnt signaling [1] is 25.6%. In the assay on canonical Wnt signaling [3], this compound showed a pIC50 of 5.76.
The like results for `Cc1ccc(-c2nnc(CSc3nnc(-c4ccncc4)n3-c3ccccc3Cl)o2)s1` [compound 74] were, in that order, 13% and 6.43.
In turn, `COc1ccc(-n2c(S)nnc2-c2ccncc2)cc1` [Compound 15] came in with an activity at 10 µM with canonical Wnt signaling [1] of 69.1%.
Same read-out and setting: then `Cc1ccccc1-n1c(SCC(=O)NCc2cccs2)nnc1-c1ccncc1` [Compound 88], with 99%.
Regarding `NCCCOCCCOc1cccc(-c2noc(CSc3nnc(-c4ccncc4)n3-c3ccccc3Cl)n2)c1` [compound 67], in the assay on canonical Wnt signaling [1], the activity at 10 µM was 12.7%. Further, the pIC50 with canonical Wnt signaling [3] is over 7.00.
For the compound `COc1ccc(-n2c(SCCNC(C)=O)nnc2-c2ccncc2)cc1` [Compound 33], the activity at 10 µM in the assay on canonical Wnt signaling [1] is 79.6%.
On the same count and under the same terms, then `COc1ccc(-n2c(OCc3nc(-c4ccc(C)cc4)no3)nnc2-c2ccncc2)cc1` [Compound 4], with 98.4%.
Regarding `Fc1ccc(-n2c(SCc3nc(-c4ccc(Cl)cc4)no3)nnc2-c2ccncc2)cc1` [Compound 12], in the assay on canonical Wnt signaling [1], the activity at 10 µM stood at 38.8%. Also, in the assay on canonical Wnt signaling [3], the negative logarithm of the IC50 (pIC50) is 5.00.
In the assay with canonical Wnt signaling [1], `COc1ccc(-n2c(SC)nnc2-c2ccncc2)cc1` [Compound 14] showed an activity at 10 µM of 63.5%.
`Cc1ccc(-c2nc(CSc3nnc(-c4ccncc4)n3-c3ccccc3Cl)sc2C)cc1` [Compound 62] yielded an activity at 10 µM in the assay with canonical Wnt signaling [1] of 58%.
Still for that read-out and setting: then `CC1CCCCC1n1c(SCc2nnc(-c3ccccc3)o2)nnc1-c1cccnc1` (stereo not drawn) [Compound 87], with 52%.
